Measured values taken from patent US9751851B2, “Molecules and compositions that inhibit gram negative bacteria and their uses” (THE TRUSTEES OF PRINCETON UNIVERSITY, priority 2013, dated 2017).
Like-named read-outs stand apart in the source and are kept apart here.

Legend:
P. aeruginosa PA14 = experiment: Growth of P. aeruginosa monitored by absorbance at 600 nm; format: cell-based
[1] = system: wild-type P. aeruginosa PA14; experiment: microbe, parasite or virus in culture; format: cell-based; settings: for IC50: read-out: IC50 for inhibition of pyocyanin production; for inhibition of pyocyanin production (in words): wild-type P. aeruginosa PA14, end point assays at 100 μM; for inhibition at 100 µM / Efficacy (%): reduction of pyocyanin vs WT P. aeruginosa PA14: 0% = WT level, 100% = background medium
Procedure: Methods. The oxidized form of pyocyanin imparts a green color to P. aeruginosa cultures, making the production of pyocyanin convenient to monitor by UV/Vis absorbance. Overnight P. aeruginosa cultures were subcultured into 5 mL fresh medium at 1:1000 dilution. Synthetic compounds were assayed at 100 μM for end point assays and at concentrations ranging from 200 nM to 200 μM for titrations following 17 hr of aerobic growth with shaking at 37° C. Cells were separated from culture fluids via centrifugation at 13,000 rpm for 15 min. Culture fluids were passed through 0.22 μm syringe driven filters (Millipore). Cell-free culture fluids were analyzed for pyocyanin using wavelength scans on a Beckman Coulter DU-800 spectrophotometer from 200 nm to 800 nm 695 nm was chosen for graphical representation. Titration data were fit with a variable-slope sigmoidal dose-response curve using GraphPad Prism to determine the IC50 values.
The compounds of the first library were assayed in wild-type (WT) P. aeruginosa PA14. Pyocyanin was used as a read-out for quorum sensing activity based on its absorbance at 695 nm. The efficacy of the compounds at reducing pyocyanin levels was calculated with respect to WT levels of pyocyanin, where WT levels of pyocyanin would lead to a 0% efficacy, and an absorbance equal to the background medium would lead to a 100% efficacy. Agonists that increase pyocyanin production have negative efficacy values.

[2] = WT P. aeruginosa PA14, 17 hr growth, titration
[3] = Pseudomonas aeruginosa, PA14, 17 h, read-out: Efficacy (%), Table 4
[4] = Pseudomonas aeruginosa, PA14, 17 h, read-out: Efficacy (%), Table 1, negative = agonist
[5] = Pseudomonas aeruginosa, PA14, 17 h, read-out: Efficacy (%), Table 3
[6] = Pseudomonas aeruginosa, PA14, 17 h, read-out: Efficacy (%), Table 2, negative = agonist
[7] = Pseudomonas aeruginosa, PA14, 17 h

What does the source list for O=C(CCCOc1cccc(Cl)c1)NC1CCSC1=O (stereo not drawn) [mCTL]?
effect on P. aeruginosa PA14 growth (P. aeruginosa PA14): not affecting P. aeruginosa PA14 growth; IC50 [1, 2]: 9 µM; inhibition of pyocyanin production (in words) [1]: potent inhibition of pyocyanin

How did the inhibition at 100 µM [1, 3] turn out when O=C(COc1c(F)c(F)c(F)c(F)c1F)Nc1ccnc(C(F)(F)F)c1 [S72, 4-amino-2-trifluoromethylpyridine-C6-perfluorophenoxyhybrid] was run?
The inhibition at 100 µM was 21 ± 14%.

How did the inhibition at 100 µM [1, 4] turn out when CCCCCCCCCC(=O)CC(=O)Nc1ccncn1 [S3, 3OC12-4-aminopyrimidine] was run?
The inhibition at 100 µM was 64 ± 0.8%.

O=C(COc1cccc(Br)c1)Nc1ccncn1 [S51, 4-aminopyrimidine-C6-3-bromophenoxyhybrid] was tested. Which inhibition at 100 µM [1, 5] did it give?
The inhibition at 100 µM was 27 ± 7%.

How did the “Efficacy (%)” value ([1]; Table 3, listed as drawing 63) turn out when COc1cc(NC(=O)COc2cccc(Br)c2)ccn1 [S42, 4-amino-2-methoxypyridine-C4-3-bromophenoxyhybrid] was run?
The value was 20 ± 1%.

With O=C(COc1cccc([N+](=O)[O-])c1)Nc1ccnc(C(F)(F)F)c1 [S73, 4-amino-2-trifluoromethylpyridine-C6-3-nitrophenoxyhybrid] as the molecule, how does the inhibition at 100 µM [1, 3] read?
Its inhibition at 100 µM is 39 ± 36%.

With CCCCCCCCCC(=O)CC(=O)Nc1ncccn1 [S5, 3OC12-2-aminopyrimidine] as the molecule, how does the inhibition at 100 µM [1, 4] read?
The inhibition at 100 µM was -0.51 ± 4%.

With O=C(CCCOc1cccc(Br)c1)N[C@H]1CCOC1=O [mBL] as the molecule, how does the “inhibition of pyocyanin production (in words)” value (“inhibition … (in words)” below) [1] read?
The value was “most effective inhibitor of pyocyanin production”.

With O=C(COc1cccc(Br)c1)Nc1ccnc(F)c1 [S40, 4-amino-2-fluoropyridine-C4-3-bromophenoxyhybrid] as the molecule, how does the “Efficacy (%)” value ([1]; Table 3) read?
Its value is 32 ± 4%.

O=C(CCCCOc1cccc(Br)c1)NC1CCSC1=O (stereo not drawn) [5C-mBTL] was tested. Which “inhibition … (in words)” value [1] did it give?
Its value is “most effective inhibitor of pyocyanin production”.

CCCCCCCCCCCC(=O)N1CCN(c2ccncc2)CC1 [S24, C12-4-(piperazine)pyridine] was tested. Which inhibition at 100 µM [1, 6] did it give?
The inhibition at 100 µM was -42 ± 2%.

How did the “Efficacy (%)” value ([1]; Table 3, listed as drawing 77) turn out when O=C(COc1cccc(Br)c1)Nc1ccnc(C(F)(F)F)c1 [S58, 4-amino-2-trifluoromethylpyridine-C7-3-bromophenoxyhybrid] was run?
The value was 23 ± 7%.

With COc1cc(NC(=O)CC(=O)COc2cccc(Br)c2)ccn1 [S46, 4-amino-2-methoxypyridine-3OC6-3-bromophenoxyhybrid] as the molecule, how does the inhibition at 100 µM [1, 5] read?
Its inhibition at 100 µM is 40%.

What about the “Efficacy (%)” value ([1]; Table 3) of the same molecule?
The value was 40 ± 6%.

Which inhibition at 100 µM [1, 4] does the source give for CCCCCCCCCC(=O)CC(=O)Nc1ccncc1 [compound 14, 3OC12-4-aminopyridine] here?
Its inhibition at 100 µM is 63 ± 2%.

What about the IC50 [1, 7] of the same molecule?
The IC50 was 0.16 µM.

What does the source list for CCCCCCCCCCCC(=O)Nc1ccnc(F)c1 [compound 15, C12-4-amino-2-fluoropyridine]?
inhibition at 100 µM [1, 6]: 70%; Efficacy (%) ([1]; Table 2, negative = agonist): 70 ± 2%

How did the inhibition at 100 µM [1, 6] turn out when CCCCCCCCCCCC(=O)OCc1ccncc1 [S23, C12-4-(hydroxymethyl)pyridine] was run?
The inhibition at 100 µM was -15 ± 4%.

CCCCCCCCCCCC(=O)Nc1cnccn1 [S10, C12-2-aminopyrazine] was tested. Which inhibition at 100 µM [1, 4] did it give?
Its inhibition at 100 µM is -38 ± 3%.

CCCCCCCCCCCC(=O)Nc1ccnc(C)c1 [S12, C12-4-amino-2-methylpyridine] was tested. Which inhibition at 100 µM [1, 6] did it give?
The inhibition at 100 µM was -19 ± 3%.

How did the inhibition at 100 µM [1, 3] turn out when O=C(COc1cccc(Cl)c1)Nc1ccnc(C(F)(F)F)c1 [S67, 4-amino-2-trifluoromethylpyridine-C6-3-chlorophenoxyhybrid] was run?
The inhibition at 100 µM was 101%.

And the “Efficacy (%)” value ([1]; Table 4)?
The value was 101 ± 3%.

Which IC50 [1, 2] does the source give for O=C(CCCOc1cccc(Br)c1)N[C@@H]1CCSC1=O [(R)-mBTL] here?
The IC50 was 100 µM.

O=C(COc1cccc(Br)c1)Nc1ccncc1 [S37, 4-aminopyridine-C4-3-bromophenoxyhybrid] was tested. Which “Efficacy (%)” value ([1]; Table 3, listed as drawing 59) did it give?
The value was 21 ± 5%.

What does the source list for O=C(CCCCCCc1cccc(F)c1)Nc1ccnc(C(F)(F)F)c1 [S83, 7-(3-fluorophenyl)-N-(2-(trifluoromethyl)pyridin-4-yl)heptanamide]?
inhibition at 100 µM [1, 3]: 96%; Efficacy (%) ([1]; Table 4): 96 ± 4%

With O=C(COc1cccc(Br)c1)Nc1ccnc(C(F)(F)F)c1 [S56, 4-amino-2-trifluoromethylpyridine-C4-3-bromophenoxyhybrid] as the molecule, how does the “Efficacy (%)” value ([1]; Table 3, listed as drawing 74) read?
Its value is 43 ± 8%.

How did the IC50 [1, 7] turn out when CCCCCCCCCNC(=O)CC(=O)c1ccccc1 [V-06-018, reference compound] was run?
The IC50 was 18 µM.

How did the inhibition at 100 µM [1, 6] turn out when CCCCCCCCCC(=O)CC(=O)Nc1ccnc(OC)c1 [S16, 3OC12-4-amino-2-methoxypyridine] was run?
The inhibition at 100 µM was 24 ± 1%.

Which inhibition at 100 µM [1, 6] does the source give for CCCCCCCCCCCCNC(=O)c1cc2ccccc2n1C [S32, C12-2-amido-1-methylindole] here?
Its inhibition at 100 µM is -9.2 ± 4%.

For CCCCCCCCCC(=O)CC(=O)Nc1ccccn1 [S1, 3OC12-2-aminopyridine], which inhibition at 100 µM [1, 4] is on record?
Its inhibition at 100 µM is 44 ± 13%.

With COc1nccc(NC(=O)COc2cccc(Br)c2)n1 [S53, 4-amino-2-methoxypyrimidine-C6-3-bromophenoxyhybrid] as the molecule, how does the inhibition at 100 µM [1, 5] read?
The inhibition at 100 µM was 16 ± 5%.

For O=C(COc1cccc(O)c1)Nc1ccnc(C(F)(F)F)c1 [S77, 4-amino-2-trifluoromethylpyridine-C6-3-hydroxyphenoxyhybrid], which inhibition at 100 µM [1, 3] is on record?
The inhibition at 100 µM was 70%.

What about the “Efficacy (%)” value ([1]; Table 4) of the same molecule?
The value was 70 ± 7%.

With CCCCCCCCCC(=O)CC(=O)Nc1ccc2c(c1)c1ccccc1n2CC [S31, 3OC12-3-amino-1-ethylcarbazole] as the molecule, how does the inhibition at 100 µM [1, 6] read?
The inhibition at 100 µM was 9.3 ± 4%.

Which inhibition at 100 µM [1, 6] does the source give for CCCCCCCCCCCC(=O)Nc1ccc2oc3c(c2c1)CCCC3 [S35, C12-2-amino-tetrahydrodibenzofuran] here?
Its inhibition at 100 µM is 6.1 ± 4%.

For CCCCCCCCCCCC(=O)Nc1c(F)c(F)nc(F)c1F [S19, C12-4-amino-2,3,5,6-tetrafluoropyridine], which inhibition at 100 µM [1, 6] is on record?
The inhibition at 100 µM was -12 ± 3%.

For CCCCCCCCCC(=O)CC(=O)Nc1ccnc(F)c1 [S18, 3OC12-4-amino-2-fluoropyridine], which inhibition at 100 µM [1, 6] is on record?
Its inhibition at 100 µM is -8.5 ± 3%.

How did the inhibition at 100 µM [1, 6] turn out when CCCCCCCCCCCC(=O)Nc1ccnc(Br)c1 [S17, C12-4-amino-2-bromopyridine] was run?
Its inhibition at 100 µM is 34 ± 5%.

Which inhibition at 100 µM [1, 6] does the source give for CCCCCCCCCCCC(=O)Nc1ccnc(OC)c1 [S15, C12-4-amino-2-methoxypyridine] here?
The inhibition at 100 µM was -5.1 ± 1%.

What does the source list for COc1cc(NC(=O)COc2cccc(Br)c2)ccn1 [S50, 4-amino-2-methoxypyridine-C8-3-bromophenoxyhybrid]?
Efficacy (%) ([1]; Table 3, listed as Table 3 entry 10): 60%; Efficacy (%) ([1]; Table 3, listed as drawing 68): 60 ± 2%

O=C(COc1cccc(I)c1)Nc1ccnc(C(F)(F)F)c1 [S66, 4-amino-2-trifluoromethylpyridine-C6-3-iodophenoxyhybrid] was tested. Which inhibition at 100 µM [1, 3] did it give?
The inhibition at 100 µM was 95%.

And the “Efficacy (%)” value ([1]; Table 4)?
Its value is 95 ± 3%.

O=C(CCc1ccc(Br)cc1)N[C@H]1CCOC1=O [B7, reference compound] was tested. Which “inhibition … (in words)” value [1] did it give?
The value was “limited or no inhibition”.
